{"source": "patent US20100041089A1", "about": "“IMPROVED METHOD FOR DETECTING CHEMICAL […]” (priority 2006, published 2010)", "tested_on": "yeast genes (expressed mRNA)", "assay": "DNA chip measurement of expressed mRNA of yeast genes after culture with a toxic chemical substance", "assay_type": "cell-based, Saccharomyces cerevisiae S288C", "method_in_brief": "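Yeast S288C, YPD 25° C; toxicant at log phase, 2 h, sublethal growth-inhibiting conc.; no-chemical control. Hot SDS/acetate RNA extraction, oligo-dT mRNA, Cy3/Cy5-dUTP RT. Whole-genome chip, 65° C >12 h. Readout: treated/control intensity ratio, ≥2 significant.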", "data": [{"smiles": "COc1cc(CNC(=O)CCCCC=CC(C)C)ccc1O", "note": "[(12), 8-Methyl-N-vanillyl-6-nonenamide]", "values": [{"measurement": "The level of expressed mRNA in the presence of chemical substance/The level of expressed mRNA in the absence of chemical substance", "setting": "yeast gene YNL092W, cultured two hours with substance", "result": 1.1}, {"measurement": "The level of expressed mRNA in the presence of chemical substance/The level of expressed mRNA in the absence of chemical substance", "setting": "yeast gene YNL104C, metabolism protein genes", "result": 1.1}, {"measurement": "The level of expressed mRNA in the presence of chemical substance/The level of expressed mRNA in the absence of chemical substance", "setting": "yeast gene YNL115C, cultured two hours with substance", "result": 0.8}, {"measurement": "The level of expressed mRNA in the presence of chemical substance/The level of expressed mRNA in the absence of chemical substance", "setting": "yeast gene YNL156C, cultured two hours with substance", "result": 0.9}, {"measurement": "The level of expressed mRNA in the presence of chemical substance/The level of expressed mRNA in the absence of chemical substance", "setting": "yeast gene YNL169C", "result": 1.0}, {"measurement": "The level of expressed mRNA in the presence of chemical substance/The level of expressed mRNA in the absence of chemical substance", "setting": "yeast gene YNL190W, cultured two hours with substance", "result": 1.0}, {"measurement": "The level of expressed mRNA in the presence of chemical substance/The level of expressed mRNA in the absence of chemical substance", "setting": "yeast gene YNL208W, cultured two hours with substance", "result": 0.8}, {"measurement": "The level of expressed mRNA in the presence of chemical substance/The level of expressed mRNA in the absence of chemical substance", "setting": "yeast gene YNL211C, cultured two hours with substance", "result": 3.2}, {"measurement": "The level of expressed mRNA in the presence of chemical substance/The level of expressed mRNA in the absence of chemical substance", "setting": "yeast gene YNL234W, cultured two hours with substance", "result": 1.1}, {"measurement": "The level of expressed mRNA in the presence of chemical substance/The level of expressed mRNA in the absence of chemical substance", "setting": "yeast gene YNL241C (stress protein genes)", "result": 2.0}, {"measurement": "The level of expressed mRNA in the presence of chemical substance/The level of expressed mRNA in the absence of chemical substance", "setting": "yeast gene YNL281W, cultured two hours with substance", "result": 0.7}, {"measurement": "The level of expressed mRNA in the presence of chemical substance/The level of expressed mRNA in the absence of chemical substance", "setting": "yeast gene YNL300W, cultured two hours with substance", "result": 0.8}, {"measurement": "The level of expressed mRNA in the presence of chemical substance/The level of expressed mRNA in the absence of chemical substance", "setting": "yeast gene YNL305C, cultured two hours with substance", "result": 1.1}, {"measurement": "The level of expressed mRNA in the presence of chemical substance/The level of expressed mRNA in the absence of chemical substance", "setting": "yeast gene YNL331C", "result": 0.9}, {"measurement": "The level of expressed mRNA in the presence of chemical substance/The level of expressed mRNA in the absence of chemical substance", "setting": "yeast gene YNR033W, metabolism protein genes", "result": 1.1}, {"measurement": "The level of expressed mRNA in the presence of chemical substance/The level of expressed mRNA in the absence of chemical substance", "setting": "yeast gene YNR064C, cultured two hours with substance", "result": 0.7}, {"measurement": "The level of expressed mRNA in the presence of chemical substance/The level of expressed mRNA in the absence of chemical substance", "setting": "yeast gene YNR068C, cultured two hours with substance", "result": 1.3}, {"measurement": "The level of expressed mRNA in the presence of chemical substance/The level of expressed mRNA in the absence of chemical substance", "setting": "yeast gene YOL031C, cultured two hours with substance", "result": 2.1}, {"measurement": "The level of expressed mRNA in the presence of chemical substance/The level of expressed mRNA in the absence of chemical substance", "setting": "yeast gene YOL032W, cultured two hours with substance", "result": 1.0}, {"measurement": "The level of expressed mRNA in the presence of chemical substance/The level of expressed mRNA in the absence of chemical substance", "setting": "yeast gene YOL036W, cultured two hours with substance", "result": 1.0}, {"measurement": "The level of expressed mRNA in the presence of chemical substance/The level of expressed mRNA in the absence of chemical substance", "setting": "yeast gene YOL047C, cultured two hours with substance", "result": 0.8}, {"measurement": "The level of expressed mRNA in the presence of chemical substance/The level of expressed mRNA in the absence of chemical substance", "setting": "yeast gene YOL058W", "result": 1.3}, {"measurement": "The level of expressed mRNA in the presence of chemical substance/The level of expressed mRNA in the absence of chemical substance", "setting": "yeast gene YOL064C (stress protein genes)", "result": 0.9}, {"measurement": "The level of expressed mRNA in the presence of chemical substance/The level of expressed mRNA in the absence of chemical substance", "setting": "yeast gene YOL071W, cultured two hours with substance", "result": 1.0}, {"measurement": "The level of expressed mRNA in the presence of chemical substance/The level of expressed mRNA in the absence of chemical substance", "setting": "yeast gene YOL082W, cultured two hours with substance", "result": 1.0}, {"measurement": "The level of expressed mRNA in the presence of chemical substance/The level of expressed mRNA in the absence of chemical substance", "setting": "yeast gene YOL083W, cultured two hours with substance", "result": 1.2}, {"measurement": "The level of expressed mRNA in the presence of chemical substance/The level of expressed mRNA in the absence of chemical substance", "setting": "yeast gene YOL117W, cultured two hours with substance", "result": 0.9}, {"measurement": "The level of expressed mRNA in the presence of chemical substance/The level of expressed mRNA in the absence of chemical substance", "setting": "yeast gene YOL126C, metabolism protein genes", "result": 1.1}, {"measurement": "The level of expressed mRNA in the presence of chemical substance/The level of expressed mRNA in the absence of chemical substance", "setting": "yeast gene YOL131W, cultured two hours with substance", "result": 0.9}, {"measurement": "The level of expressed mRNA in the presence of chemical substance/The level of expressed mRNA in the absence of chemical substance", "setting": "yeast gene YOL150C, cultured two hours with substance", "result": 2.9}, {"measurement": "The level of expressed mRNA in the presence of chemical substance/The level of expressed mRNA in the absence of chemical substance", "setting": "yeast gene YOL162W, cultured two hours with substance", "result": 1.4}, {"measurement": "The level of expressed mRNA in the presence of chemical substance/The level of expressed mRNA in the absence of chemical substance", "setting": "yeast gene YOR019W, cultured two hours with substance", "result": 1.0}, {"measurement": "The level of expressed mRNA in the presence of chemical substance/The level of expressed mRNA in the absence of chemical substance", "setting": "yeast gene YOR049C, cultured two hours with substance", "result": 6.7}, {"measurement": "The level of expressed mRNA in the presence of chemical substance/The level of expressed mRNA in the absence of chemical substance", "setting": "yeast gene YOR099W, metabolism protein genes", "result": 1.1}, {"measurement": "The level of expressed mRNA in the presence of chemical substance/The level of expressed mRNA in the absence of chemical substance", "setting": "yeast gene YOR130C, metabolism protein genes", "result": 0.9}, {"measurement": "The level of expressed mRNA in the presence of chemical substance/The level of expressed mRNA in the absence of chemical substance", "setting": "yeast gene YOR197W, cultured two hours with substance", "result": 1.0}, {"measurement": "The level of expressed mRNA in the presence of chemical substance/The level of expressed mRNA in the absence of chemical substance", "setting": "yeast gene YOR248W, cultured two hours with substance", "result": 0.5}, {"measurement": "The level of expressed mRNA in the presence of chemical substance/The level of expressed mRNA in the absence of chemical substance", "setting": "yeast gene YOR336W, metabolism protein genes", "result": 1.0}, {"measurement": "The level of expressed mRNA in the presence of chemical substance/The level of expressed mRNA in the absence of chemical substance", "setting": "yeast gene YOR382W, cultured two hours with substance", "result": 2.8}, {"measurement": "The level of expressed mRNA in the presence of chemical substance/The level of expressed mRNA in the absence of chemical substance", "setting": "yeast gene YPL017C, metabolism protein genes", "result": 1.0}, {"measurement": "The level of expressed mRNA in the presence of chemical substance/The level of expressed mRNA in the absence of chemical substance", "setting": "yeast gene YPL052W, cultured two hours with substance", "result": 1.1}, {"measurement": "The level of expressed mRNA in the presence of chemical substance/The level of expressed mRNA in the absence of chemical substance", "setting": "yeast gene YPL087W, cultured two hours with substance", "result": 1.8}, {"measurement": "The level of expressed mRNA in the presence of chemical substance/The level of expressed mRNA in the absence of chemical substance", "setting": "yeast gene YPL194W (stress protein genes)", "result": 0.9}, {"measurement": "The level of expressed mRNA in the presence of chemical substance/The level of expressed mRNA in the absence of chemical substance", "setting": "yeast gene YPL196W, cultured two hours with substance", "result": 0.9}, {"measurement": "The level of expressed mRNA in the presence of chemical substance/The level of expressed mRNA in the absence of chemical substance", "setting": "yeast gene YPL206C, cultured two hours with substance", "result": 0.8}, {"measurement": "The level of expressed mRNA in the presence of chemical substance/The level of expressed mRNA in the absence of chemical substance", "setting": "yeast gene YPL222W, cultured two hours with substance", "result": 1.3}, {"measurement": "The level of expressed mRNA in the presence of chemical substance/The level of expressed mRNA in the absence of chemical substance", "setting": "yeast gene YPR023C, cultured two hours with substance", "result": 0.9}, {"measurement": "The level of expressed mRNA in the presence of chemical substance/The level of expressed mRNA in the absence of chemical substance", "setting": "yeast gene YPR079W, cultured two hours with substance", "result": 1.0}, {"measurement": "The level of expressed mRNA in the presence of chemical substance/The level of expressed mRNA in the absence of chemical substance", "setting": "yeast gene YPR151C, cultured two hours with substance", "result": 0.9}, {"measurement": "The level of expressed mRNA in the presence of chemical substance/The level of expressed mRNA in the absence of chemical substance", "setting": "yeast gene YPR167C", "result": 1.3}]}]}
